ChEMBL document CHEMBL4680157, “Design, synthesis and biological evaluation of novel TRβ selective agonists sustained by ADME-toxicity analysis” (Eur J Med Chem, 2020)

Key:
[1] = Cytotoxicity against human U2OS cells assessed as cell growth inhibition at 10 uM after 24 hrs relative to control; assay type: cell-based
[2] = Cytotoxicity against human U2OS cells assessed as cell growth inhibition at 10 uM after 48 hrs relative to control; assay type: cell-based
[3] = Cytotoxicity against human HEK293 cells assessed as cell growth inhibition at 10 uM after 24 hrs relative to control; assay type: cell-based
[4] = Cytotoxicity against human HEK293 cells assessed as cell growth inhibition at 10 uM after 48 hrs relative to control; assay type: cell-based
[5] = Cytotoxicity against human hTERT cells assessed as cell growth inhibition at 10 uM after 24 hrs relative to control; assay type: cell-based, hTERT-BJ
[6] = Cytotoxicity against human hTERT cells assessed as cell growth inhibition at 10 uM after 48 hrs relative to control; assay type: cell-based, hTERT-BJ
[7] = Cytotoxicity against human MCF7 cells assessed as cell growth inhibition at 10 uM after 48 hrs relative to control; assay type: cell-based
CYP1A2 = molecular target: T1, CYP1A2 (Homo sapiens, UniProt P05177); assay: Inhibition of CYP1A2 (unknown origin) at 10 uM relative to control; assay type: ADME
T1 sequence (P05177 whole entry): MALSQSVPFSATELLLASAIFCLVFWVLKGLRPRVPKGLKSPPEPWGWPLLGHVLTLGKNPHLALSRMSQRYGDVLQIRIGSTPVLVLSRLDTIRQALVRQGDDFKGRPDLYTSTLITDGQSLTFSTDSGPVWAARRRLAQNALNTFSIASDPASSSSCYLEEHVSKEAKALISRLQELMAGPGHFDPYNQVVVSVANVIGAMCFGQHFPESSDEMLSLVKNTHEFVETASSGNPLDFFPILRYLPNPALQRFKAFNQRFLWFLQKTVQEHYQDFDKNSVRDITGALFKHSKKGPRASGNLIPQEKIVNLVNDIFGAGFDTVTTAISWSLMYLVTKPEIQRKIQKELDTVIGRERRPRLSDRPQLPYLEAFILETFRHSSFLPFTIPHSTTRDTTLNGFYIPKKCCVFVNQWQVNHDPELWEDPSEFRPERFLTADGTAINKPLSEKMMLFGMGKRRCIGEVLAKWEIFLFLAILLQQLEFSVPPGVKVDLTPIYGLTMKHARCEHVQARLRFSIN

CYP2C9 = CYP2C9 (Homo sapiens, UniProt P11712); assay: Inhibition of CYP2C9 (unknown origin) at 10 uM relative to control; assay type: ADME
CYP2C19 = CYP2C19 (Homo sapiens, UniProt P33261); assay: Inhibition of CYP2C19 (unknown origin) at 10 uM relative to control; assay type: ADME
CYP2D6 = CYP2D6 (Homo sapiens, UniProt P10635); assay: Inhibition of CYP2D6 (unknown origin) at 10 uM relative to control; assay type: ADME
CYP3A4 = CYP3A4 (Homo sapiens, UniProt P08684); assay: Inhibition of CYP3A4 (unknown origin) at 10 uM relative to control; assay type: ADME
hERG (KCNH2) = hERG (KCNH2) (Homo sapiens, UniProt Q12809); assay: Inhibition of human ERG at 10 uM by fluorescence polarization assay relative to control
HDAC4 = HDAC4 (Homo sapiens, UniProt P56524); assay: Inhibition of HDAC4 (unknown origin) at 10 uM relative to control
HDAC6 = molecular target: T2, HDAC6 (Homo sapiens, UniProt Q9UBN7); assay: Inhibition of HDAC6 (unknown origin) at 10 uM relative to control
T2 sequence (Q9UBN7 whole entry): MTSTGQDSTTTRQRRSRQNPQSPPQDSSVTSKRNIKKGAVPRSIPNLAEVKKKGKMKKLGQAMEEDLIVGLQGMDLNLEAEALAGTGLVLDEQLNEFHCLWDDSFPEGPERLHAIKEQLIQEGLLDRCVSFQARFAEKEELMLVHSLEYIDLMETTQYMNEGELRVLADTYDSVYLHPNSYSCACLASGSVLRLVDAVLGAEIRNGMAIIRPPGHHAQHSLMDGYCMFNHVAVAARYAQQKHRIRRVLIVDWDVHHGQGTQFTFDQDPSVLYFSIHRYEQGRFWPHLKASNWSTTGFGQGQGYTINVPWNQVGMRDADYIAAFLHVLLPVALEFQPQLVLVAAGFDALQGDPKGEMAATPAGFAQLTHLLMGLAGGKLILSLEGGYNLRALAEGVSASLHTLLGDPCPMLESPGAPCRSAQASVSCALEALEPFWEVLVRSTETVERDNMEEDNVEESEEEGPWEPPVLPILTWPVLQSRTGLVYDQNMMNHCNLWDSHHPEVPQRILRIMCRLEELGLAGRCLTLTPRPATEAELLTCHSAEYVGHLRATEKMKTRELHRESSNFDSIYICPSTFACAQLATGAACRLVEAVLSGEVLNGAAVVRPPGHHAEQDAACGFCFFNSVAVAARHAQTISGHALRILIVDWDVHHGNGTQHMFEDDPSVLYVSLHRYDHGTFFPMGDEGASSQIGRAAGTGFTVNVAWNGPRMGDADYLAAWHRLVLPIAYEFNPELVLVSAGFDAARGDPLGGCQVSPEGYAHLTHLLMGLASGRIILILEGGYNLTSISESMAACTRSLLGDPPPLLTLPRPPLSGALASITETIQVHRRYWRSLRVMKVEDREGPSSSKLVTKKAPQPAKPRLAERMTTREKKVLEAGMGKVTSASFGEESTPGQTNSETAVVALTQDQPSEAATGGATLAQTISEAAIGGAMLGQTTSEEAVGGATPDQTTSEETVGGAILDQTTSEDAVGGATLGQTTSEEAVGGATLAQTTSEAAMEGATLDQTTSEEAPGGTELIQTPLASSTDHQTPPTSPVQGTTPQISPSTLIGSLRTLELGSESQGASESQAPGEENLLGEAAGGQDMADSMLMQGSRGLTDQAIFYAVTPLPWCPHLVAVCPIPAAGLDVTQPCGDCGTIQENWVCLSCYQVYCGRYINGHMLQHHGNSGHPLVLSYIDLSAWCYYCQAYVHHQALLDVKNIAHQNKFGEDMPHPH

HDAC8 = molecular target: T3, HDAC8 (Homo sapiens, UniProt Q9BY41); assay: Inhibition of HDAC8 (unknown origin) at 10 uM relative to control
T3 sequence (Q9BY41 whole entry): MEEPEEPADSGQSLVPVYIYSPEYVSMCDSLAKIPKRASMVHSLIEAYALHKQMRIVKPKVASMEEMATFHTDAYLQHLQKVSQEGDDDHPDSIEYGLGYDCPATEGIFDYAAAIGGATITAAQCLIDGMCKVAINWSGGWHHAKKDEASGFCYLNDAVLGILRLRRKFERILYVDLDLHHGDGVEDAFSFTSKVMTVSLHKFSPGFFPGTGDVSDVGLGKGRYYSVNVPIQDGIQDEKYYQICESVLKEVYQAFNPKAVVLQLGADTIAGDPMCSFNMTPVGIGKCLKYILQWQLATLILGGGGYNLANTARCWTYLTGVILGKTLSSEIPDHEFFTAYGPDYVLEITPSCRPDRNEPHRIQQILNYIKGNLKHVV

Aurora B = Aurora B (Homo sapiens, UniProt Q96GD4); assay: Inhibition of Aurora B (unknown origin) at 10 uM relative to control
Aurora B, sequence (Q96GD4 whole entry): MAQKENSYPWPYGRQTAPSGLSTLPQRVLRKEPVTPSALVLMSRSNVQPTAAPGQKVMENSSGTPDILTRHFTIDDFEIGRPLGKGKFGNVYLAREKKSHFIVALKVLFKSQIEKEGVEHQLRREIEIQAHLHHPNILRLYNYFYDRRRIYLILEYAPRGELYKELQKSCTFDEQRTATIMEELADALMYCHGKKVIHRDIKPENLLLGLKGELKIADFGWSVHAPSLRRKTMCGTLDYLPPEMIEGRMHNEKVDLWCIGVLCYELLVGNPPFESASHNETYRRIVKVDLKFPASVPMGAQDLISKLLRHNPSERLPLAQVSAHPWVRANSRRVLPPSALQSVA

CYP2C9, sequence (P11712 whole entry): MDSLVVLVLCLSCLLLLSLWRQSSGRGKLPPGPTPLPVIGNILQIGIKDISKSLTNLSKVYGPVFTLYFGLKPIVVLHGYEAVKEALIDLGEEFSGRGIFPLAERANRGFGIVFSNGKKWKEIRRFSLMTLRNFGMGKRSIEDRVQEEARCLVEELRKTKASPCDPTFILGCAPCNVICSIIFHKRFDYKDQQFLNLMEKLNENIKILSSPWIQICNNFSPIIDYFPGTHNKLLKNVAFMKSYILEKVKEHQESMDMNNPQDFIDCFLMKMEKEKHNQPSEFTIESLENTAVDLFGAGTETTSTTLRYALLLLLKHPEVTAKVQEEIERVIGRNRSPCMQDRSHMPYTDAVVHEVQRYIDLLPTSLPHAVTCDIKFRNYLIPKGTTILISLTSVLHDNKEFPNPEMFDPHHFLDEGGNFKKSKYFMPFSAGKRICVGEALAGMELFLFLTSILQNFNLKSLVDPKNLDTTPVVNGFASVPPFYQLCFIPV
CYP3A4, sequence (P08684 whole entry): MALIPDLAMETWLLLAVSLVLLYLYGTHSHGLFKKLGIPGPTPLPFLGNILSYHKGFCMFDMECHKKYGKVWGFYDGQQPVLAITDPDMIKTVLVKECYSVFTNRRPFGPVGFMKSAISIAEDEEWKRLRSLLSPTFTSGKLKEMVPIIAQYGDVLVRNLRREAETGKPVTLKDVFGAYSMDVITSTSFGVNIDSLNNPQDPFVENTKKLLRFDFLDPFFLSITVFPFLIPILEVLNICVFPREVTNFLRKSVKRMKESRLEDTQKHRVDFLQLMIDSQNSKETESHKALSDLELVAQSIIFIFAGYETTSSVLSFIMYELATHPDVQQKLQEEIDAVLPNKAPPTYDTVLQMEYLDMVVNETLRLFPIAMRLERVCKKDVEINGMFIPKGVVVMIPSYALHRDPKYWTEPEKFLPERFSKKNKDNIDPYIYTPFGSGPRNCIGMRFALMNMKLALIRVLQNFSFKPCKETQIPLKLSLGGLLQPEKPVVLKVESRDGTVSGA
CYP2D6, sequence (P10635 whole entry): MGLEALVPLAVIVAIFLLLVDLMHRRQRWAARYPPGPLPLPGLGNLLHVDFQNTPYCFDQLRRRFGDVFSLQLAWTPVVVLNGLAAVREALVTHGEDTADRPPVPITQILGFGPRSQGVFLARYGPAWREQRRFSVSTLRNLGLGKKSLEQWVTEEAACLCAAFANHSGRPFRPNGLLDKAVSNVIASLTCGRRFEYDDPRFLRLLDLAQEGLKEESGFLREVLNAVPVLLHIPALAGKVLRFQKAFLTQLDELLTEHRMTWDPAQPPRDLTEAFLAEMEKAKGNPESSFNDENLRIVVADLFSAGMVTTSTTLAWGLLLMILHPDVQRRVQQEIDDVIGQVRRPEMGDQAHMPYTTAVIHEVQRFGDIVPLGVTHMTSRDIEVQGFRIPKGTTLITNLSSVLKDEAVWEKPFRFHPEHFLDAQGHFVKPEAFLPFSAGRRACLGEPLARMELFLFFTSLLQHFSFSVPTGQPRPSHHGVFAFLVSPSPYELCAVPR
CYP2C19, sequence (P33261 whole entry): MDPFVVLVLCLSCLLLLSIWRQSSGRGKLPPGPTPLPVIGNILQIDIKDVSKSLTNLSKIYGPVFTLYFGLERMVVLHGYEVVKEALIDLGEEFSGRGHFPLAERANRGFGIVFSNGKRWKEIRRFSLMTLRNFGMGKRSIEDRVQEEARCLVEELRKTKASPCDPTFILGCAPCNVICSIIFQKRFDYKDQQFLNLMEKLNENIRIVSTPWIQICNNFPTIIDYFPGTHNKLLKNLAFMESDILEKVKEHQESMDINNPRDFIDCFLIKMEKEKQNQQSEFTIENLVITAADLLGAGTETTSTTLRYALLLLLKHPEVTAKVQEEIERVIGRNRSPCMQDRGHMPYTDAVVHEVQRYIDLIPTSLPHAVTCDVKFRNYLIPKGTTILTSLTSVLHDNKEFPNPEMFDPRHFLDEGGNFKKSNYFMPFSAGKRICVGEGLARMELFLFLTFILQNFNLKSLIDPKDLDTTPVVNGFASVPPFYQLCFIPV
HDAC4, sequence (P56524 whole entry): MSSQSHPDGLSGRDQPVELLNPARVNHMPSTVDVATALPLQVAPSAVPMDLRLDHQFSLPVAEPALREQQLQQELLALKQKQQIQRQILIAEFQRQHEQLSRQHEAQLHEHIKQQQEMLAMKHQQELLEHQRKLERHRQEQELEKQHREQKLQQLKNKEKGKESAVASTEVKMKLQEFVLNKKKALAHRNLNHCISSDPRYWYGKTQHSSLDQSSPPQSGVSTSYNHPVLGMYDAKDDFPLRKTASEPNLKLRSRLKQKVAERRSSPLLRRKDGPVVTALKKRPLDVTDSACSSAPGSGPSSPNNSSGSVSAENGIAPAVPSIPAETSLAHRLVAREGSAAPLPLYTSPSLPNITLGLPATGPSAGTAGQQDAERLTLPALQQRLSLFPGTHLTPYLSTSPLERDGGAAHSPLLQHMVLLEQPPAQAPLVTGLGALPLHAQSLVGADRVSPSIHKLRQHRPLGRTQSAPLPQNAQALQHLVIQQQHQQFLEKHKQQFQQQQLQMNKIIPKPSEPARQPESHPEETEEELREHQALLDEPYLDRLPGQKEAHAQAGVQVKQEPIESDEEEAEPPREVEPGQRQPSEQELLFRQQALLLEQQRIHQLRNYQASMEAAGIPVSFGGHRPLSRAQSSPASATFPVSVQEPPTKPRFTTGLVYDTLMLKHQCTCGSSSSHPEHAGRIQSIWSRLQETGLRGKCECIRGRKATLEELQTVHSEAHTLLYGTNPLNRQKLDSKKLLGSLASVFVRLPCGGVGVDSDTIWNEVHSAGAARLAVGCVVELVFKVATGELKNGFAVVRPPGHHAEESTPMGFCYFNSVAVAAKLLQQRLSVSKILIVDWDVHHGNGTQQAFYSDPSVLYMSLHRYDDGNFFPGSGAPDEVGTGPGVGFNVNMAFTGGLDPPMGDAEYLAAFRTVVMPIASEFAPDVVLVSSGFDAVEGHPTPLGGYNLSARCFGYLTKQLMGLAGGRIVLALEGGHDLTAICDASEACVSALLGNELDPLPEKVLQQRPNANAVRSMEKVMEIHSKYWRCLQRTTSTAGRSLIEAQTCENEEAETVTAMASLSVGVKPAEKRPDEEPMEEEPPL
hERG (KCNH2), sequence (Q12809 whole entry): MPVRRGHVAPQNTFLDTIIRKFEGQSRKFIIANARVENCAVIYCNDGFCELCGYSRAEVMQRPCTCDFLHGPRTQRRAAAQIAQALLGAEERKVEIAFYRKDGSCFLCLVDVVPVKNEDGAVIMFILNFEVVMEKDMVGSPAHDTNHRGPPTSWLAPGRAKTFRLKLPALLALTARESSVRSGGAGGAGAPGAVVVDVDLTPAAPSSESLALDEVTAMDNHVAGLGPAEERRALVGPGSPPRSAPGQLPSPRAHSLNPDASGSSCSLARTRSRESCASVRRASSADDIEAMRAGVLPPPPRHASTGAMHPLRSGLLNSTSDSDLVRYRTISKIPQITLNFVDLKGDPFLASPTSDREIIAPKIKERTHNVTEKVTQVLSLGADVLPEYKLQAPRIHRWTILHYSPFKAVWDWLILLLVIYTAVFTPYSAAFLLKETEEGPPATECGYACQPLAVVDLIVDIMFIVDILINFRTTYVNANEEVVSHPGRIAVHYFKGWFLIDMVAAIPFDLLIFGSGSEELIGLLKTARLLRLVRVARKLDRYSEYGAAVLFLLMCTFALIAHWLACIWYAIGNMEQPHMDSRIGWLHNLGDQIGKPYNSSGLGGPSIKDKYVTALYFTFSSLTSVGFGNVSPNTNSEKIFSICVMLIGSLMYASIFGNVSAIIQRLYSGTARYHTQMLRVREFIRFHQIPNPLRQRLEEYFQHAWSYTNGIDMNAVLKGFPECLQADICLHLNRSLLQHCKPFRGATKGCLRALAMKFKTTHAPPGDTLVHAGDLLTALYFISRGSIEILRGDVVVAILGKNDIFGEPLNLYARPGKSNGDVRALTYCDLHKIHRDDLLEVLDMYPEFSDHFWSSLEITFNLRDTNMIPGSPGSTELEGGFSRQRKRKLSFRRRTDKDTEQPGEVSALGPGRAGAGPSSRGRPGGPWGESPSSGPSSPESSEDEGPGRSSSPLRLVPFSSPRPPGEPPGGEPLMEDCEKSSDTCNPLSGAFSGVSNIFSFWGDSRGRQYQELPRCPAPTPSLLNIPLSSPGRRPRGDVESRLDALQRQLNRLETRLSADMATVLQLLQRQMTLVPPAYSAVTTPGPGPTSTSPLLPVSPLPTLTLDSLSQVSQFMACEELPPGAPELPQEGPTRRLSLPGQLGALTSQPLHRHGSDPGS

| Structure (SMILES) | inhibition at 24 h, 10 µM [1] [%] | inhibition at 48 h, 10 µM [2] [%] | inhibition at 24 h, 10 µM [3] [%] | inhibition at 48 h, 10 µM [4] [%] | inhibition at 24 h, 10 µM [5] [%] | inhibition at 48 h, 10 µM [6] [%] | inhibition at 48 h, 10 µM [7] [%] | inhibition at 10 µM (CYP1A2) [%] | inhibition at 10 µM (CYP2C9) [%] | inhibition at 10 µM (CYP2C19) [%] | inhibition at 10 µM (CYP2D6) [%] | inhibition at 10 µM (CYP3A4) [%] | inhibition at 10 µM (hERG (KCNH2)) [%] | inhibition at 10 µM (HDAC4) [%] | inhibition at 10 µM (HDAC6) [%] | inhibition at 10 µM (HDAC8) [%] | inhibition at 10 µM (Aurora B) [%] |
| --- | --- | --- | --- | --- | --- | --- | --- | --- | --- | --- | --- | --- | --- | --- | --- | --- | --- |
| CC(=O)Nc1ccc(Cc2c(C)cc(OCC(=O)O)cc2C)cc1C(C)C | < 50 | < 50 | < 50 | < 50 | < 50 | < 50 | < 50 | < 50 | < 50 | < 50 | < 50 | < 50 | < 25 | < 50 | < 50 | < 50 | < 50 |
| Cc1cc(OCC(=O)O)cc(C)c1Cc1ccc(N)c(C(C)C)c1 | < 50 | < 50 | < 50 | < 50 | < 50 | < 50 | < 50 | < 50 | < 50 | < 50 | < 50 | 51 | < 40 | < 50 | < 50 | < 50 | < 50 |
| Cc1cc(OCC(=O)O)cc(C)c1Cc1ccc(O)cc1 | < 50 | < 50 | < 50 | < 50 | < 50 | < 50 | < 50 | < 50 | < 50 | < 50 | < 50 | < 50 | < 25 | < 50 | < 50 | < 50 | < 50 |
